In ChEMBL document CHEMBL4024706 (Eur J Med Chem, 2017):

Assays:
[1] = target: Serine/threonine-protein kinase 38-like (Homo sapiens) (UniProt Q9Y2H1); assay: Inhibition of wild-type human partial length NDR2 (N34 to E447 residues) expressed in bacterial expression system assessed as residual activity at 1 uM by Kinomescan method relative to control
[2] = target: Serine/threonine-protein kinase MRCK gamma (Homo sapiens) (UniProt Q6DT37); assay: Inhibition of wild-type human partial length DMPK2 (S46 to S408 residues) expressed in bacterial expression system assessed as residual activity at 1 uM by Kinomescan method relative to control
[3] = target: Cyclin-dependent kinase 14 (Homo sapiens) (UniProt O94921); assay: Inhibition of wild-type human full length PFTK1 (M1 to H451 residues) expressed in bacterial expression system assessed as residual activity at 1 uM by Kinomescan method relative to control
[4] = tested on: Tyrosine-protein kinase ABL1 (Homo sapiens), P00519 [H396P]; assay: Inhibition of human non-phosphorylated ABL1 H396P mutant (S229 to K512 residues) expressed in mammalian expression system assessed as residual activity at 1 uM by Kinomescan method relative to control
[5] = target: Serine/threonine-protein kinase WNK3 (Homo sapiens) (UniProt Q9BYP7); assay: Inhibition of wild-type human partial length WNK3 (M1 to D434 residues) expressed in mammalian expression system assessed as residual activity at 1 uM by Kinomescan method relative to control
[6] = target: Ephrin type-A receptor 3 (Homo sapiens) (UniProt P29320); assay: Inhibition of wild-type human partial length EPHA3 (D604 to K889 residues) expressed in bacterial expression system assessed as residual activity at 1 uM by Kinomescan method relative to control
[7] = target: Serine/threonine-protein kinase 17B (Homo sapiens) (UniProt O94768); assay: Inhibition of wild-type human full length DRAK2 (M1 to C372 residues) expressed in bacterial expression system assessed as residual activity at 1 uM by Kinomescan method relative to control
[8] = target: Homeodomain-interacting protein kinase 3 (Homo sapiens) (UniProt Q9H422); assay: Inhibition of wild-type human partial length HIPK3 (M153 to N562 residues) expressed in mammalian expression system assessed as residual activity at 1 uM by Kinomescan method relative to control
[9] = tested on: Proto-oncogene tyrosine-protein kinase receptor Ret (Homo sapiens), P07949 [M918T]; assay: Inhibition of human partial length RET M918T mutant (E713 to D1014 residues) expressed in bacterial expression system assessed as residual activity at 1 uM by Kinomescan method relative to control
[10] = AUC (0 to infinity) in Sprague-Dawley rat at 1 mg/kg, iv by LC-MS/MS method; type: ADME, organism-based; set-up: dose 1 mg/kg, route intravenous, time infinity; conditions: in vivo
[11] = target: Glycogen synthase kinase-3 alpha (Homo sapiens) (UniProt P49840); assay: Inhibition of wild-type human full length GSK3A (M1 to S483 residues) expressed in bacterial expression system assessed as residual activity at 1 uM by Kinomescan method relative to control
[12] = tested on: Tyrosine-protein kinase ABL1 (Homo sapiens), P00519 [Q252H]; assay: Inhibition of human phosphorylated ABL1 Q252H mutant expressed in mammalian expression system assessed as residual activity at 1 uM by Kinomescan method relative to control
[13] = target: Serine/threonine-protein kinase Chk2 (Homo sapiens) (UniProt O96017); assay: Inhibition of wild-type human partial length CHEK2 (S253 to E574 residues) expressed in bacterial expression system assessed as residual activity at 1 uM by Kinomescan method relative to control
[14] = target: Interleukin-1 receptor-associated kinase 1 (Homo sapiens) (UniProt P51617); assay: Inhibition of wild-type human partial length IRAK1 (R194 to S712 residues) expressed in mammalian expression system assessed as residual activity at 1 uM by Kinomescan method relative to control
[15] = target: Calcium/calmodulin-dependent protein kinase kinase 1 (Homo sapiens) (UniProt Q8N5S9); assay: Inhibition of wild-type human partial length CAMKK1 (R65 to E414 residues) expressed in bacterial expression system assessed as residual activity at 1 uM by Kinomescan method relative to control
[16] = target: Serine/threonine-protein kinase LATS1 (Homo sapiens) (UniProt O95835); assay: Inhibition of wild-type human partial length LATS1 (Q678 to V1130 residues) expressed in bacterial expression system assessed as residual activity at 1 uM by Kinomescan method relative to control
[17] = target: Calcium/calmodulin-dependent protein kinase type IV (Homo sapiens) (UniProt Q16566); assay: Inhibition of wild-type human partial length CAMK4 (A22 to A322 residues) expressed in bacterial expression system assessed as residual activity at 1 uM by Kinomescan method relative to control
[18] = target: Serine/threonine-protein kinase 26 (Homo sapiens) (UniProt Q9P289); assay: Inhibition of wild-type human full length MST4 (M1 to P416 residues) expressed in mammalian expression system assessed as residual activity at 1 uM by Kinomescan method relative to control
[19] = target: MAP kinase-activated protein kinase 2 (Homo sapiens) (UniProt P49137); assay: Inhibition of wild-type human partial length MAPKAPK2 (V48 to D345 residues) expressed in bacterial expression system assessed as residual activity at 1 uM by Kinomescan method relative to control
[20] = target: Muscle, skeletal receptor tyrosine-protein kinase (Homo sapiens) (UniProt O15146); assay: Inhibition of wild-type human partial length MUSK (M553 to V869 residues) expressed in bacterial expression system assessed as residual activity at 1 uM by Kinomescan method relative to control
[21] = target: Dual specificity tyrosine-phosphorylation-regulated kinase 2 (Homo sapiens) (UniProt Q92630); assay: Inhibition of wild-type human full length DYRK2 (M1 to S528 residues) expressed in mammalian expression system assessed as residual activity at 1 uM by Kinomescan method relative to control
[22] = target: Mitogen-activated protein kinase kinase kinase 7 (Homo sapiens) (UniProt O43318); assay: Inhibition of wild-type human partial length TAK1 (M1 to Q303 residues) expressed in mammalian expression system assessed as residual activity at 1 uM by Kinomescan method relative to control
[23] = target: Tyrosine-protein kinase ABL2 (Homo sapiens) (UniProt P42684); assay: Inhibition of wild-type human ABL2 (A248 to G542 residues) expressed in bacterial expression system assessed as residual activity at 1 uM by Kinomescan method relative to control
[24] = tested on: Tyrosine-protein kinase ABL1 (Homo sapiens), P00519 [M351T]; assay: Inhibition of human phosphorylated ABL1 M351T mutant (S229 to K512 residues) expressed in mammalian expression system assessed as residual activity at 1 uM by Kinomescan method relative to control
[25] = target: BMP-2-inducible protein kinase (Homo sapiens) (UniProt Q9NSY1); assay: Inhibition of wild-type human partial length BIKE (S34 to N329 residues) expressed in bacterial expression system assessed as residual activity at 1 uM by Kinomescan method relative to control

Sequence of Serine/threonine-protein kinase 38-like (Homo sapiens) (Q9Y2H1 2-464 limits assumed): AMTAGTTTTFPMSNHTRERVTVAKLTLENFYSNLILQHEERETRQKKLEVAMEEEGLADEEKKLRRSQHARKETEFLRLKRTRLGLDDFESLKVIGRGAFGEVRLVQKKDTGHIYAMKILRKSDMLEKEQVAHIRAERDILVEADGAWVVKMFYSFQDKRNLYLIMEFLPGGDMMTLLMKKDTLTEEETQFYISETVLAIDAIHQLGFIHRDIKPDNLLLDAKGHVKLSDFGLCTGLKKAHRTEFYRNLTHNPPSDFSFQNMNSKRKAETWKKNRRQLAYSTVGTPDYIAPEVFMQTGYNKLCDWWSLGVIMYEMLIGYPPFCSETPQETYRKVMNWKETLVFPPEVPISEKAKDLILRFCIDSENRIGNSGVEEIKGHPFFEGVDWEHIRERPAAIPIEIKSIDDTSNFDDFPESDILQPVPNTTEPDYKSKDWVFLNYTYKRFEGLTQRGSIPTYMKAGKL
Sequence of Calcium/calmodulin-dependent protein kinase type IV (Homo sapiens) (Q16566 whole entry, the tested form may be a part): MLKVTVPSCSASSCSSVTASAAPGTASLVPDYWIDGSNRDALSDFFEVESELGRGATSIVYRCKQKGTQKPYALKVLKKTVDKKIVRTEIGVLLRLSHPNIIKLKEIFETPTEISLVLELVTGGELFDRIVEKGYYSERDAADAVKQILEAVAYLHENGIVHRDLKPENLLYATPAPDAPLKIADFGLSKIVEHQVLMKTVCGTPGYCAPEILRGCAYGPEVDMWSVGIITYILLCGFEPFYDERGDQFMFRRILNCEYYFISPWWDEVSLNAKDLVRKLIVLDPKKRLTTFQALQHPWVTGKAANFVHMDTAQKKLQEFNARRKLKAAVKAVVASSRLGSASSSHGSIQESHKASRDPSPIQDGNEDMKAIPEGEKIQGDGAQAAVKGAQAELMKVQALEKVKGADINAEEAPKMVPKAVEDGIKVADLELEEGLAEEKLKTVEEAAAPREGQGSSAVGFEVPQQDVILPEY
Sequence of Homeodomain-interacting protein kinase 3 (Homo sapiens) (Q9H422 whole entry, looked up, the tested form may be a part): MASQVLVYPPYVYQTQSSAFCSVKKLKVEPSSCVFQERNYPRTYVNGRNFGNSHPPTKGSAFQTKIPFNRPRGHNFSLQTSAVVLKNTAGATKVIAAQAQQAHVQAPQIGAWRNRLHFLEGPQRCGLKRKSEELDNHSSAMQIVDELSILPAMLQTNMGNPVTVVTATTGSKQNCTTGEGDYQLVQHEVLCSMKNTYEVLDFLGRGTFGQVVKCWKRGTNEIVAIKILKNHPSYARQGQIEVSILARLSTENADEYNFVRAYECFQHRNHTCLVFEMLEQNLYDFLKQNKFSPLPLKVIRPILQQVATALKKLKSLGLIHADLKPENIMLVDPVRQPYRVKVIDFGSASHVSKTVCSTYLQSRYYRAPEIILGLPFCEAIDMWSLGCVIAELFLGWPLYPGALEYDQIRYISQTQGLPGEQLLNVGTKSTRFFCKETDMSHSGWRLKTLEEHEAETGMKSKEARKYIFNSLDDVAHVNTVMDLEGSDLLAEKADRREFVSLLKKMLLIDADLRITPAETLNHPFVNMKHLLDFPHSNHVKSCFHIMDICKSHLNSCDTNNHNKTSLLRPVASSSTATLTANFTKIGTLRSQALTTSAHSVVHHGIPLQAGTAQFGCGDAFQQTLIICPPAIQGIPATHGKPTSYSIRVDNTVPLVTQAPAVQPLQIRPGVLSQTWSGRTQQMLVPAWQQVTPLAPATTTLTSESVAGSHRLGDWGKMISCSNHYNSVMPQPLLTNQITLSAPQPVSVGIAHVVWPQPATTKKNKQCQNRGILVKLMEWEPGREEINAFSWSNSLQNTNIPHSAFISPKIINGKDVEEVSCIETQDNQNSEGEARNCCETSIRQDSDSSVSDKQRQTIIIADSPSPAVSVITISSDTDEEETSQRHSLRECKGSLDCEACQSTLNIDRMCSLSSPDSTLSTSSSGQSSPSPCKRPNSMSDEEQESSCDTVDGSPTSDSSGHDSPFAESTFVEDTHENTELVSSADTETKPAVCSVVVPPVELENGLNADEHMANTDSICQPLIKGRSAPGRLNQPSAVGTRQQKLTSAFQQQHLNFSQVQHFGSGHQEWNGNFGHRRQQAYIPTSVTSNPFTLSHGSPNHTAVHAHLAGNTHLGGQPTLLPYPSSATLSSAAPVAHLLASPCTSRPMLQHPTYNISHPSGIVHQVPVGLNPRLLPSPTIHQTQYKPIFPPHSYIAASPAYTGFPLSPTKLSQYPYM
Sequence of Serine/threonine-protein kinase 26 (Homo sapiens) (Q9P289 2-416 limits assumed): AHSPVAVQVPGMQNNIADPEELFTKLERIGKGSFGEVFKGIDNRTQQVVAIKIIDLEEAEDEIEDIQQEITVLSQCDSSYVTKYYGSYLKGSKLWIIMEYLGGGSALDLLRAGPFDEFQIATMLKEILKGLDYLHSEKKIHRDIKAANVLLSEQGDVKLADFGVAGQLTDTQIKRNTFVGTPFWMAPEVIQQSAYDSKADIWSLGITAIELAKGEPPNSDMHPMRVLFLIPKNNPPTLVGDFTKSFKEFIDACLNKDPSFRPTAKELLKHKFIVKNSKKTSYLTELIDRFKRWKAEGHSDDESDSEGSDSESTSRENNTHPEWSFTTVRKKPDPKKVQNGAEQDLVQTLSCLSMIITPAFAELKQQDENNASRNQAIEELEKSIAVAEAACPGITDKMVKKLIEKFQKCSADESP
Sequence of Serine/threonine-protein kinase MRCK gamma (Homo sapiens) (Q6DT37 whole entry, the tested form may be a part): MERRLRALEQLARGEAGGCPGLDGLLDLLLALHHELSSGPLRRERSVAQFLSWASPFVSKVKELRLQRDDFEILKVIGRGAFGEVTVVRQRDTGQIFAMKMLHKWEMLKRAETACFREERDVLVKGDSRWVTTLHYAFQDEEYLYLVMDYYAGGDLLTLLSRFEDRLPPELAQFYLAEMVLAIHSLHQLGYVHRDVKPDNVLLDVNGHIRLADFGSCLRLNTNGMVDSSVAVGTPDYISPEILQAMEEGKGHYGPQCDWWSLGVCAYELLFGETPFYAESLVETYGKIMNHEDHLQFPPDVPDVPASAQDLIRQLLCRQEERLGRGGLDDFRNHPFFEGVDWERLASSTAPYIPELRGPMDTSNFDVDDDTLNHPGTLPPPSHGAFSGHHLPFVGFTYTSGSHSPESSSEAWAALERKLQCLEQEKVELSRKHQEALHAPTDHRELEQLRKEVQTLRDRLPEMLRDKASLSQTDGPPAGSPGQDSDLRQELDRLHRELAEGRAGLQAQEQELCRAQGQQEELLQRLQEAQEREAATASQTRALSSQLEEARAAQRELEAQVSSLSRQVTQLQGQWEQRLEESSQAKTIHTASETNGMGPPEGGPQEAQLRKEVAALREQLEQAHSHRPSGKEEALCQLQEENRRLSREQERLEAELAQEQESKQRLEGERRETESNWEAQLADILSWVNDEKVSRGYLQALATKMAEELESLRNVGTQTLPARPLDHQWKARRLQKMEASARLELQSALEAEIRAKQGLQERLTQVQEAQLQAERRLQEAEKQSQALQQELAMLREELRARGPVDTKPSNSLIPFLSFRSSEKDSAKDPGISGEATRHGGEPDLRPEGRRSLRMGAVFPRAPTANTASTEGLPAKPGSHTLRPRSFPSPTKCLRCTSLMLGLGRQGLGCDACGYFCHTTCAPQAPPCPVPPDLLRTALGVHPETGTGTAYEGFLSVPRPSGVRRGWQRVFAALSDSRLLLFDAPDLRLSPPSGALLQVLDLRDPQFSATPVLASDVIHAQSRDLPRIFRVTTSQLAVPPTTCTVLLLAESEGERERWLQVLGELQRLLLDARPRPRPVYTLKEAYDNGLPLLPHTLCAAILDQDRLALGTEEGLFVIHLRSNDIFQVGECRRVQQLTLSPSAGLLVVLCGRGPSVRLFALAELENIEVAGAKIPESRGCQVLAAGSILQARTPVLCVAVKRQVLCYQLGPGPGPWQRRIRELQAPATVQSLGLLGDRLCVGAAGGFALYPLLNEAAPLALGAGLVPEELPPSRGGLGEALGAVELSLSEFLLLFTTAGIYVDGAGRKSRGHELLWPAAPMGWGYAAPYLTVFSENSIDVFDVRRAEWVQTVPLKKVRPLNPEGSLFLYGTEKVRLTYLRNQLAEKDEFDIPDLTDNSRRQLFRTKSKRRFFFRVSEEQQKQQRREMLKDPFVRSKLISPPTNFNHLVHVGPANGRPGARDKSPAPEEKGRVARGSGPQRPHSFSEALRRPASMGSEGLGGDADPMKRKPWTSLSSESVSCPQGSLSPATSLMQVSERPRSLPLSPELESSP
Sequence of Dual specificity tyrosine-phosphorylation-regulated kinase 2 (Homo sapiens) (Q92630 whole entry, the tested form may be a part): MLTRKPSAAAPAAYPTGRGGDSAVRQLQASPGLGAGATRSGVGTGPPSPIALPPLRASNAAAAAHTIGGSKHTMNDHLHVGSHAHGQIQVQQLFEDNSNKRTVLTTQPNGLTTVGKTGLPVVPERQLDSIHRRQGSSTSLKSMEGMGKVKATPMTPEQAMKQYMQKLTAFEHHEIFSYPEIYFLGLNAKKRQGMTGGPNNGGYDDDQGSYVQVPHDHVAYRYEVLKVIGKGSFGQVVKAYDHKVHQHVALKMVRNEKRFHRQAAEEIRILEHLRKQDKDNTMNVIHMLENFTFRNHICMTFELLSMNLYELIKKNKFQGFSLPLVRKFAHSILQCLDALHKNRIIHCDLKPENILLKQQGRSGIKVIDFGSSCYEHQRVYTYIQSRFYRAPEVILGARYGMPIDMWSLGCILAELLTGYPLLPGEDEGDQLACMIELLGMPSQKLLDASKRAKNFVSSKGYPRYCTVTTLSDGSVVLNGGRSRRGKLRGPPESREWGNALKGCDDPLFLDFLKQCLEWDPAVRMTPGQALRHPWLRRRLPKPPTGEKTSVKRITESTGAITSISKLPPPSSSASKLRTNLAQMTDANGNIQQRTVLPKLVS

C=CC(=O)Nc1cc(Nc2cc(-c3cccc(NC(=O)c4ccc(C(C)(C)C)cc4)c3C)cn(C)c2=O)ccc1C(=O)N1CCOCC1
Activity [1]: 100% | Activity [2]: 100% | Activity [3]: 93% | Activity [4]: 100% | Activity [5]: 94% | Activity [6]: 95% | Activity [7]: 94% | Activity [8]: 100% | Activity [9]: 100% | AUC(0-inf) [10]: 183 ng·h/mL | Activity [11]: 100% | Activity [12]: 100% | Activity [13]: 87% | Activity [14]: 100% | Activity [15]: 100% | Activity [16]: 74% | Activity [17]: 77% | Activity [18]: 88% | Activity [19]: 88% | Activity [20]: 91% | Activity [21]: 97% | Activity [22]: 89% | Activity [23]: 100% | Activity [24]: 97% | Activity [25]: 94%
